According to patent US20230250096A1, “SUBSTITUTED PHENYL-1H-PYRROLO[2,3-c] PYRIDINE DERIVATIVES” (Janssen Pharmaceutica NV, priority 2021, published 2023):

How the values were obtained:
MEIS1 mRNA expression = MEIS1 mRNA expression assay (Quantigene Singleplex) in MOLM14 cells; format: cell-based, human; settings: 48 hours incubation
Method in brief: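 Read-out: MEIS1 transcript counts, background-subtracted and divided by RPL28, expressed as fold change over DMSO-treated cells, then dose-response modelled for IC50. MOLM14 cells (3,750/well) received graded compound for 48 h before lysis and QuantiGene hybridization at 55 °C.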

[1] = target: T1, menin/MLL (terbium chelate-labeled menin, FITC-MBM1 peptide) (Homo sapiens, UniProt O00255, T541A); experiment: Menin/MLL homogenous time-resolved fluorescence (HTRF) assay; format: binding; settings: 30 min incubation
T1 construct: Menin (a.a 1-610-6xhis tag, 2.3 mg/mL in 20 mM Hepes)
T1 sequence (O00255 with tags, fused parts or gaps T541A): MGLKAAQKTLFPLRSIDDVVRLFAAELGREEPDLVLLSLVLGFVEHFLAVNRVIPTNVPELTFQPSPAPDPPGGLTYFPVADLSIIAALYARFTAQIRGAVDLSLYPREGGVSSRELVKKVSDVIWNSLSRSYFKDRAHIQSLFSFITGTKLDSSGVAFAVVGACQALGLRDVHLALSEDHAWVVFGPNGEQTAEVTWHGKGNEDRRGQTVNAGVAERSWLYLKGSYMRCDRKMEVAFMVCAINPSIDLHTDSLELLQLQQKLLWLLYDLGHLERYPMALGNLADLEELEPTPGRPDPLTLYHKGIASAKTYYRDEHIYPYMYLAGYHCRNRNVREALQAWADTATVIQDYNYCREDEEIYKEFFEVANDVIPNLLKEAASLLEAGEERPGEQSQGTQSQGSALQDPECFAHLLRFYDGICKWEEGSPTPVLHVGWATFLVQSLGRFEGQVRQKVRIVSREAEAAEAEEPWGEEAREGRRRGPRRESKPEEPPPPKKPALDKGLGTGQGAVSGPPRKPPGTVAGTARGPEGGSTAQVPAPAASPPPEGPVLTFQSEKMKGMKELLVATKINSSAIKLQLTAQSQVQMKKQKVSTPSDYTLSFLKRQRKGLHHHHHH
Method in brief: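 Competition binding read by time-resolved FRET (FITC 520 nm over terbium 490 nm) after compound meets labeled menin 1-610-His […] for 30 min, then FITC-MBM1 (75 nM) for 15 min, ambient temperature, 0.5% DMSO. Eleven-point four-fold dilutions, usually starting at 10 μM, fitted to four-parameter curves for IC50.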

| Structure (SMILES) | IC50 (MEIS1 mRNA expression) | IC50 [1] | IC50 (MEIS1 mRNA expression; Homo sapiens, MOLM-14, 48 h) |
| --- | --- | --- | --- |
| Cc1cncc2c1c(CC1CCN(CC3CCN(C(=O)CC4CS(=O)(=O)C4)CC3)C1)cn2-c1ccc(F)cc1C(=O)N(C)C(C)C (single isomer, unassigned) [Compound 108] | 153 nM | 0.161 nM | – |
| CC(=O)NC(C)CN1CCC(Cc2cn(-c3ccc(F)cc3C(=O)N(C)C(C)C)c3cncc(C)c23)C1 (single isomer, unassigned) [Compound 119a] | > 1000 nM | 0.906 nM | – |
| CC(=O)N[C@@H](C)CN1CC[C@H](Cc2cn(-c3ccc(F)cc3C(=O)N(C)C(C)C)c3cncc(C)c23)C1 (single isomer, unassigned) [Compound 119b] | – | 0.569 nM | > 1000 nM |
| Cc1cncc2c1c(C[C@H]1CCN(CC3CCN(C(=O)C(C)C)CC3)C1)cn2-c1ccc(F)cc1C(=O)N(C)C(C)C (single isomer, unassigned) [Compound 121] | – | 0.049 nM | 13 nM |
| Cc1cncc2c1c(C[C@H]1CCN(CC3CCS(=O)(=O)CC3)C1)cn2-c1ccc(F)cc1C(=O)N(C)C(C)C (single isomer, unassigned) [Compound 124] | – | 0.156 nM | 114 nM |
| CN=[S@@](=O)(c1cc(F)ccc1-n1cc(C[C@@H]2CCN(CC3CCN(C(C)=O)CC3)C2)c2c(C)cncc21)C(C)C (single isomer, unassigned) [Compound 128c] | – | 1.01 nM | ~487 nM |
| Cc1cncc2c1c(CC1CNC(CC3CCOCC3)C1)cn2-c1ccc(F)cc1C(=O)N(C)C(C)C (single isomer, unassigned) [Compound 134a] | 86 nM | 0.032 nM | – |
| Cc1cncc2c1c(CC1CNC(CC3CCOCC3)C1)cn2-c1ccc(F)cc1C(=O)N(C)C(C)C (single isomer, unassigned) [Compound 134b] | > 1000 nM | 0.988 nM | – |
| Cc1cncc2c1c(CC1CNC(CC3CCOCC3)C1)cn2-c1ccc(F)cc1C(=O)N(C)C(C)C (single isomer, unassigned) [Compound 134c] | 119 nM | 0.073 nM | – |
| Cc1cncc2c1c(CC1CNC(CC3CCOCC3)C1)cn2-c1ccc(F)cc1C(=O)N(C)C(C)C (single isomer, unassigned) [Compound 134d] | > 1000 nM | 0.425 nM | – |
| Cc1cncc2c1c(C[C@H]1CCN(CC3CCN(C(=O)C4CC4)CC3)C1)cn2-c1ccc(F)cc1C(=O)N(C)C(C)C (single isomer, unassigned) [Compound 135] | – | ~0.056 nM | 7 nM |
| CC(=O)N1CCC(N2CC[C@H](Cc3cn(-c4ccc(F)cc4C(=O)N(C)C(C)C)c4cncc(C)c34)C2)C(C)C1 (single isomer, unassigned) [Compound 137b] | 43 nM | ~0.34 nM | – |
| Cc1cncc2c1c(C[C@@H]1CCN([C@H]3CCNC(=O)CC3)C1)cn2-c1ccc(F)cc1C(=O)N(C)C(C)C (single isomer, unassigned) [Compound 139a] | – | 0.122 nM | ~810 nM |
| Cc1cncc2c1c(C[C@@H]1CCN([C@@H]3CCNC(=O)CC3)C1)cn2-c1ccc(F)cc1C(=O)N(C)C(C)C (single isomer, unassigned) [Compound 139b] | – | 0.087 nM | 716 nM |
| Cc1cncc2c1c(C[C@@H]1CCN(C[C@@H]3CCCCO3)C1)cn2-c1ccc(F)cc1C(=O)N(C)C(C)C (single isomer, unassigned) [Compound 147b] | – | 0.073 nM | ~105 nM |
| CC(=O)N1CCC([C@H](C)N2CC(Cc3cn(-c4ccc(F)cc4C(=O)N(C)C(C)C)c4cncc(C)c34)C2)CC1 (single isomer, unassigned) [Compound 151] | – | 3.77 nM | 1350 nM |

Results, then the compound that gave them:

| IC50 (MEIS1 mRNA expression) | IC50 [1] | IC50 (MEIS1 mRNA expression; Homo sapiens, MOLM-14, 48 h) | Structure (SMILES) |
| --- | --- | --- | --- |
| – | 0.173 nM | ~180 nM | COC[C@@H](C1CCCCO1)N1CC[C@@H](Cc2cn(-c3ccc(F)cc3C(=O)N(C)C(C)C)c3cncc(C)c23)C1 (single isomer, unassigned) [Compound 165a] |
| – | 7.29 nM | ~2810 nM | Cc1cncc2c1c(C[C@@H]1CCN([C@@H](C)C3CCOCC3)C1)cn2-c1ccc(F)cc1[S@](=N)(=O)C(C)C (single isomer, unassigned) [Compound 180b] |
| – | 4.58 nM | 1910 nM | Cc1cncc2c1c(C[C@H]1CCN([C@@H](C)C3CCOCC3)C1)cn2-c1ccc(F)cc1[S@](=N)(=O)C(C)C (single isomer, unassigned) [Compound 181b] |
| – | 0.462 nM | 287 nM | Cc1cncc2c1c(C[C@@H]1CCN([C@H](C)C3CCOCC3)C1)cn2-c1ccc(F)cc1[S@@](=N)(=O)C(C)C (single isomer, unassigned) [Compound 182a] |
| – | 3.1 nM | 1770 nM | Cc1cncc2c1c(C[C@@H]1CCN([C@@H](C)C3CCOCC3)C1)cn2-c1ccc(F)cc1[S@@](=N)(=O)C(C)C (single isomer, unassigned) [Compound 182b] |
| – | 0.37 nM | 307 nM | Cc1cncc2c1c(C[C@H]1CCN([C@H](C)C3CCOCC3)C1)cn2-c1ccc(F)cc1[S@@](=N)(=O)C(C)C (single isomer, unassigned) [Compound 183a] |
| – | 2.61 nM | ~2040 nM | Cc1cncc2c1c(C[C@H]1CCN([C@@H](C)C3CCOCC3)C1)cn2-c1ccc(F)cc1[S@@](=N)(=O)C(C)C (single isomer, unassigned) [Compound 183b] |
| – | 0.447 nM | 419 nM | Cc1cncc2c1c(CC1CCN(CC3CNC(=O)C3)CC1)cn2-c1ccc(F)cc1C(=O)N(C)C(C)C (single isomer, unassigned) [Compound 186a] |
| – | 0.932 nM | 504 nM | Cc1cncc2c1c(CC1CCN(C[C@@H]3CNC(=O)C3)CC1)cn2-c1ccc(F)cc1C(=O)N(C)C(C)C (single isomer, unassigned) [Compound 186b] |
| – | 0.567 nM | 1150 nM | Cc1cncc2c1c(CC1CN([C@H](C)C3CCS(=O)(=O)CC3)C1)cn2-c1ccc(F)cc1C(=O)N(C)C(C)C (single isomer, unassigned) [Compound 213a] |
| – | 1.63 nM | ~2300 nM | Cc1cncc2c1c(CC1CN([C@@H](C)C3CCS(=O)(=O)CC3)C1)cn2-c1ccc(F)cc1C(=O)N(C)C(C)C (single isomer, unassigned) [Compound 213b] |
| – | 1.29 nM | ~605 nM | CC(=O)N1CCC(CN2CC[C@@H](Cc3cn(-c4ccc(F)cc4[S@@]4(=O)=NCCC4)c4cncc(C)c34)C2)CC1 (single isomer, unassigned) [Compound 214a] |
| – | 11.7 nM | ~7280 nM | CC(=O)N1CCC(CN2CC[C@@H](Cc3cn(-c4ccc(F)cc4[S@]4(=O)=NCCC4)c4cncc(C)c34)C2)CC1 (single isomer, unassigned) [Compound 214b] |
| – | 30.7 nM | > 1000 nM | CC(=O)N1CCC(CN2CC[C@H](Cc3cn(-c4ccc(F)cc4[S@@]4(=O)=NCCC4)c4cncc(C)c34)C2)CC1 (single isomer, unassigned) [Compound 224a] |
| – | 2.77 nM | > 1000 nM | CC(=O)N1CCC(CN2CC[C@H](Cc3cn(-c4ccc(F)cc4[S@]4(=O)=NCCC4)c4cncc(C)c34)C2)CC1 (single isomer, unassigned) [Compound 224b] |
| – | 0.053 nM | 77 nM | CC(=O)N1CCC([C@@H](C)N2CC[C@@H](Cc3cn(-c4ccc(F)cc4[S@](=N)(=O)C(C)C)c4cncc(C)c34)C2)CC1 (single isomer, unassigned) [Compound 230a] |
